Measurements: PMC7766656, “Evaluation of the In Vitro Cytotoxic Activity of Caffeic Acid Derivatives and Liposomal Formulation against Pancreatic Cancer Cell Lines” (Materials, 2020)

Key:
[1] = test system: AsPC1 pancreatic cancer cells; assay: MTT cytotoxicity assay, AsPC1 cells, 72 h; assay type: cell-based, human; conditions: for IC50: Homo sapiens, ASPC1, free compound in DMSO, MTT, 72 h; for AsPC1 SI: selectivity index = IC50 of NHDF/IC50 of AsPC1, free compound
Procedure: (§1) In vitro cell culture procedures were performed under aseptic conditions and cultures were maintained in an Innova CO-180 incubator (New Brunswick Scientific, Edison, NJ, USA). Pancreatic cancer cells, namely, BxPC-3 (primary pancreatic tumor) and AsPC-1 (from ascites of a patient with pancreatic cancer) cells, were cultured in RPMI-1640 medium supplemented with 10% heat inactivated fetal bovine serum (FBS), GlutaMAX™ and antibiotic-antimycotic. NHDF cells were cultured in alpha-MEM medium supplemented with 10% heat-inactivated FBS, GlutaMAX™ and antibiotic-antimycotic. Culture was carried out at 37 °C in a humidified atmosphere containing 5% CO2.
(§2) The effect of CA and its derivatives on cell viability was determined using a quantitative colorimetric MTT assay adapted from Mosmann. Cells were seeded in 96-well plates (5 × 10^3/well), in appropriate complete cell culture medium, for 24 h. The cells were treated with caffeic acid derivatives (in the range of 18.75–150 μM), DMSO (an equivalent volume of DMSO was used as a negative control, maximal concentration was 0.4% v/v) or liposomal formulations for 72 h. The medium containing tested chemicals was removed and MTT solution (working solution: stock 0.5 mg/mL was 10 times diluted in medium) was added to the wells, and the plates were incubated for a further 3 h. Subsequently, the MTT solution was replaced with DMSO (50 μL/well) to dissolve the purple formazan crystals. Absorbance was measured at 560 nm with a reference wavelength of 670 nm on an Asys UVM 340 Microplate Reader (Cambridge, UK). Results were expressed as the percentage of surviving cells, with respect to the control (the untreated cells) calculated as: Cell Viability (%) = (AT/AC) × 100(2) where: • AT = Absorbance of the treatment well (treated cells); • AC = Absorbance of the control well (not treated cells).
(§3) IC50 values were calculated using GraphPad Prism for Windows (GraphPad Software, La Jolla, CA, USA). The degree of selectivity of the CA derivatives against pancreatic cancer cells was expressed by the selectivity index (SI) where: SI = IC50 normal cells/IC50 cancer cells(3)
(§4) The purpose of this study was to obtain a preliminary insight into the anticancer activity of a series of caffeic acid derivatives. In order to determine the in vitro cytotoxicity of the resynthesized compounds, the activity of CA and twelve derivatives (Table 1), were screened against two human PC cell lines, BxPC3 and AsPC1, derived from primary and metastatic tumors, respectively. Since we were also interested in evaluating the degree of selectivity of the synthetized derivatives, we decided to use normal human dermal fibroblasts as control, healthy, cells. This made it possible to determine the specificity of the tested substances, in terms of their selectivity index towards pancreatic cancer cells. The cytotoxicity of the examined compounds was estimated using the classic MTT assay, which is based on the detection of the activity of oxidoreductive enzymes (mainly mitochondrial succinate dehydrogenase), which are present only in living, metabolically active cells. During the experiments, cells were incubated for 72 h in the presence of increasing concentrations of CA and the series of CA derivatives, in the range of 18.75–150 μM. […] Untreated cells were tested as the control group.

[2] = test system: NHDF (normal human dermal fibroblasts); assay: MTT cytotoxicity assay, NHDF control cells, 72 h; assay type: cell-based; conditions: free compound in DMSO
Procedure: as §1, §2, §3, §4

[3] = test system: BxPC3 pancreatic cancer cells; assay: MTT cytotoxicity assay, BxPC3 cells, 72 h; assay type: cell-based, human; conditions: for IC50: Homo sapiens, BXPC-3, free compound in DMSO, MTT, 72 h; for BxPC3 SI: selectivity index = IC50 of NHDF/IC50 of BxPC3, free compound
Procedure: as §1, §2, §3, §4

[4] = test system: BxPC3 cells; set-up: method as in PMID 18824880; conditions: 10 μg/mL (35 μM); cited from earlier work
[5] = test system: MIAPACa-2 pancreatic cancer cell line; set-up: method as in PMID 26373299; conditions: 25 μg/mL (87 μM), 48 h incubation; cited from earlier work
[6] = test system: PANC-1 pancreatic cancer cell line; set-up: method as in PMID 26373299; conditions: 25 μg/mL (87 μM), 48 h incubation; cited from earlier work
[7] = Compound encapsulation efficiency (EE) in liposomes; assay type: physicochemical; conditions: SPC:DSPE-PEG2000 95:5 mol/mol liposomes
Procedure: Caffeic acid derivatives encapsulated liposomes were prepared using the dry lipid film and extrusion method. A 1 mL solution of 10 mg of total lipids in chloroform (SPC:DSPE-PEG2000 95:5 mol/mol) were mixed with 1 mg of caffeic acid esters in methanol. Subsequently, solvents were removed from the samples via evaporation under a stream of nitrogen-gas to form a homogeneous lipid film on the flask wall and dried for 2 h at low pressure using a Savant Modulyo lyophilizer (Thermo Fisher Scientific, Waltham, MA, USA). Then, the lipid film was suspended by addition of 1 mL of sterile normal saline (0.9% NaCl), with mixing, until it was completely hydrated. […]
The lipid concentration was determined by the Stewart assay. The amount of (7) was determined spectrophotometrically at 290 nm and was calculated from the appropriate calibration curve according to the method described previously:EE (%) = CAf(mg/mL)/Lf(mg/mL)/CAi(mg/mL)/Li(mg/mL) × 100(1) where CAi(mg/mL)/Li(mg/mL) represents the (caffeic acid derivate)-to-lipid ratio at the point when the compound was mixed with the liposomes, and CAf(mg/mL)/Lf(mg/mL) is the final (caffeic acid derivate)-to-lipid ratio of the liposomes.

For COC(=O)/C=C/c1ccc(O)c(O)c1O [(5)], which IC50 [1] is on record?
Its IC50 is 42.5 ± 3.57 µM.

And the IC50 [2]?
The IC50 was 98.8 ± 9.56 µM.

What about the IC50 [3] of the same compound?
Its IC50 is 46.6 ± 3.47 µM.

For CC(=O)/C=C/c1cccc(O)c1 [(8)], which IC50 [1] is on record?
Its IC50 is 19.2 ± 0.72 µM.

And the “AsPC1 SI” value [1]?
Its value is 4.14.

What about the IC50 [2] of the same compound?
Its IC50 is 79.7 ± 6.3 µM.

What about the IC50 [3] of the same compound?
Its IC50 is 30.5 ± 4.55 µM.

And the “BxPC3 SI” value [3]?
Its value is 2.61.

Which results are given for CC(=O)/C=C/c1ccc(O)cc1 [(9)]?
IC50 [1]: 25.6 ± 2.17 µM; AsPC1 SI [1]: 2.31; IC50 [2]: 59.2 ± 11.6 µM; IC50 [3]: 28.1 ± 3.36 µM; BxPC3 SI [3]: 2.11

With CC(=O)/C=C/c1ccc(O)cc1O [(10)] as the compound, how does the IC50 [1] read?
Its IC50 is 35.3 ± 1.28 µM.

What about the “AsPC1 SI” value [1] of the same compound?
The value was 1.54.

What about the IC50 [2] of the same compound?
Its IC50 is 54.6 ± 2.25 µM.

And the IC50 [3]?
The IC50 was 34.1 ± 1.74 µM.

And the “BxPC3 SI” value [3]?
Its value is 1.60.

Which IC50 [1] does the source give for CC(=O)/C=C/c1ccc(O)c(O)c1O [(11), 4-(2’, 3’, 4’-trihydroxyphenyl)-3 (E)-buten-2-one] here?
The IC50 was 18.4 ± 0.74 µM.

What about the “AsPC1 SI” value [1] of the same compound?
The value was 3.36.

What about the IC50 [2] of the same compound?
Its IC50 is 61.7 ± 10.5 µM.

What about the IC50 [3] of the same compound?
Its IC50 is 21.7 ± 1.51 µM.

What about the “BxPC3 SI” value [3] of the same compound?
The value was 2.84.

For COc1cc(/C=C/C(C)=O)ccc1O [(12)], which IC50 [1] is on record?
The IC50 was 38 ± 6.12 µM.

And the “AsPC1 SI” value [1]?
Its value is 1.36.

What about the IC50 [2] of the same compound?
Its IC50 is 51.5 ± 1.2 µM.

What about the IC50 [3] of the same compound?
The IC50 was 29.9 ± 5.13 µM.

What about the “BxPC3 SI” value [3] of the same compound?
The value was 1.72.

For O=C(/C=C/c1ccc(O)c(O)c1)OCCc1ccccc1 [CAPE, caffeic acid phenethyl ester], which Inhibition [4] is on record?
The Inhibition was 80.4%.

What about the “Reduction of proliferation rate” value [5] of the same compound?
The value was 65.7%.

What about the “Reduction of proliferation rate” value [6] of the same compound?
The value was 93.0%.

For CC(=O)/C=C/c1ccccc1O [Compound (7)], which Encapsulation efficiency [7] is on record?
Its Encapsulation efficiency is 93%.

What about the IC50 [1] of the same compound?
Its IC50 is 18.7 ± 0.24 µM.

What about the “AsPC1 SI” value [1] of the same compound?
The value was 3.27.

And the IC50 [2]?
The IC50 was 61.1 ± 1.95 µM.

And the IC50 [3]?
The IC50 was 22.4 ± 2.52 µM.

What about the “BxPC3 SI” value [3] of the same compound?
Its value is 2.73.
